Results reported in patent US12172995B2, “Substituted indole and indazole compounds” (BRISTOL-MYERS SQUIBB COMPANY, priority 2018, dated 2024).

How the values were obtained:
Type in all cases: cell-based
[1] = molecular target: T1, human TLR8 (Homo sapiens, UniProt Q9NR97); experiment: TLR8 inhibition reporter assay (HEK-Blue SEAP); settings: HEK-Blue cells overexpressing human TLR8, stimulated with R848 15.9 μM, 22 hour incubation
T1 construct: host or cells: HEK-Blue cells
T1 sequence (Q9NR97 27-1041): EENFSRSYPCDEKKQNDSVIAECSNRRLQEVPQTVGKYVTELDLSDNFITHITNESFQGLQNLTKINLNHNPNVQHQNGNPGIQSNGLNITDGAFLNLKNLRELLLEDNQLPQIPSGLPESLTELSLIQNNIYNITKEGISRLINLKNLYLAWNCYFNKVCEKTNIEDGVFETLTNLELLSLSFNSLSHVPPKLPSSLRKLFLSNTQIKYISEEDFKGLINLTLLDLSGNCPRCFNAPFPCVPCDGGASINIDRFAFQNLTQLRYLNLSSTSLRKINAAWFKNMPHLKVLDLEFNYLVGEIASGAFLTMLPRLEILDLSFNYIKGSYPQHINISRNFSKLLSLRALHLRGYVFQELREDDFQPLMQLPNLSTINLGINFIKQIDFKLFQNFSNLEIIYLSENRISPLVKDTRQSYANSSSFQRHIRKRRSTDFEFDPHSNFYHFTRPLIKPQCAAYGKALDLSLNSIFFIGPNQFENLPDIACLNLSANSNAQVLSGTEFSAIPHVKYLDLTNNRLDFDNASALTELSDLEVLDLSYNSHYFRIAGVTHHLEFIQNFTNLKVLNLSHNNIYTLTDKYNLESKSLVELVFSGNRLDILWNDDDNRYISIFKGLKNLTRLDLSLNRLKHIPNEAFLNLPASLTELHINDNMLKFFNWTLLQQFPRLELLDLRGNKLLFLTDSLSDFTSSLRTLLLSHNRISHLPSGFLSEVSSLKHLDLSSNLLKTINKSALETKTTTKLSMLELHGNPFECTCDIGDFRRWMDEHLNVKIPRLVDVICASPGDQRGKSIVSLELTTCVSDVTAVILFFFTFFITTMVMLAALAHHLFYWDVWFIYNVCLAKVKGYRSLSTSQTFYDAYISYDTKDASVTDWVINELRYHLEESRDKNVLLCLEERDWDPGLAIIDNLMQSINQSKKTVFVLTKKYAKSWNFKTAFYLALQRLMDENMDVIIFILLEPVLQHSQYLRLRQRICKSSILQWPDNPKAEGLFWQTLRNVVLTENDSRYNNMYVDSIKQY
Outline: (§1)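 Reporter HEK-Blue lines; cpd 0.05 nM–50 μM, 30 min preincubation RT; agonist: TLR7 gardiquimod 7.5 μM, TLR8 R848 15.9 μM, TLR9 ODN2006 5 nM; 22 h 37 °C; SEAP detected colorimetrically; % inhib vs known inhibitor.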

[2] = molecular target: T2, human TLR7 (Homo sapiens, UniProt Q9NYK1); experiment: TLR7 inhibition reporter assay (HEK-Blue SEAP); settings: HEK-Blue cells overexpressing human TLR7, stimulated with gardiquimod 7.5 μM, 22 hour incubation
T2 construct: host or cells: HEK-Blue cells
T2 sequence (Q9NYK1 27-1049): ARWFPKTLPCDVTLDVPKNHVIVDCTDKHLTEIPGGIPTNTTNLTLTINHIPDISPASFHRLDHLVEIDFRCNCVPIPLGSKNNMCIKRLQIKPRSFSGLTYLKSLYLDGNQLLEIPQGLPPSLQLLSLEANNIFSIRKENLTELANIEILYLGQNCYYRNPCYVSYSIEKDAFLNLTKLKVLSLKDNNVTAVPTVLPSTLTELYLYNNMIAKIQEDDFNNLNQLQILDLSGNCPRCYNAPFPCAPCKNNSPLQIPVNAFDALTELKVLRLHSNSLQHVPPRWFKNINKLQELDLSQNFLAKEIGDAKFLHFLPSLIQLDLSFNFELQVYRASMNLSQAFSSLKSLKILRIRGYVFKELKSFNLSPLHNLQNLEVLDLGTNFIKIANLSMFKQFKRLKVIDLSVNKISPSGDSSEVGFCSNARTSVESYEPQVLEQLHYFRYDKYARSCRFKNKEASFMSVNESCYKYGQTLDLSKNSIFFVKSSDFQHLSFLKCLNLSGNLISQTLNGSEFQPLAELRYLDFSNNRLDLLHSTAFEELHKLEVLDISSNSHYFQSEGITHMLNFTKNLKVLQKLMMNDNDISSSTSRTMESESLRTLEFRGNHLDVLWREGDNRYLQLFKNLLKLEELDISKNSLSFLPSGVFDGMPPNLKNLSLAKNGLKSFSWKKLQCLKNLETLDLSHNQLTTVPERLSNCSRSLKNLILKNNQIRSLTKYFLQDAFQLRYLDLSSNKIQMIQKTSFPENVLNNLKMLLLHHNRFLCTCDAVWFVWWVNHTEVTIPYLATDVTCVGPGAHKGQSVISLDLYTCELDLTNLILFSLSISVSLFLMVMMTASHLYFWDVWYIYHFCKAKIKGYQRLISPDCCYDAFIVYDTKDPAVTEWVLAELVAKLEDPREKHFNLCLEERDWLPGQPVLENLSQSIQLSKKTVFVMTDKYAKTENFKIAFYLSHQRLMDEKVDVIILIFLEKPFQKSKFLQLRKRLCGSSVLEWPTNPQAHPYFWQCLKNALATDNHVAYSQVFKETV
Outline: as §1

[3] = molecular target: T3, human TLR9 (Homo sapiens, UniProt Q9NR96); experiment: TLR9 inhibition reporter assay (HEK-Blue SEAP); settings: HEK-Blue cells overexpressing human TLR9, stimulated with ODN2006 5 nM, 22 hour incubation
T3 construct: host or cells: HEK-Blue cells
T3 sequence (Q9NR96 26-1032): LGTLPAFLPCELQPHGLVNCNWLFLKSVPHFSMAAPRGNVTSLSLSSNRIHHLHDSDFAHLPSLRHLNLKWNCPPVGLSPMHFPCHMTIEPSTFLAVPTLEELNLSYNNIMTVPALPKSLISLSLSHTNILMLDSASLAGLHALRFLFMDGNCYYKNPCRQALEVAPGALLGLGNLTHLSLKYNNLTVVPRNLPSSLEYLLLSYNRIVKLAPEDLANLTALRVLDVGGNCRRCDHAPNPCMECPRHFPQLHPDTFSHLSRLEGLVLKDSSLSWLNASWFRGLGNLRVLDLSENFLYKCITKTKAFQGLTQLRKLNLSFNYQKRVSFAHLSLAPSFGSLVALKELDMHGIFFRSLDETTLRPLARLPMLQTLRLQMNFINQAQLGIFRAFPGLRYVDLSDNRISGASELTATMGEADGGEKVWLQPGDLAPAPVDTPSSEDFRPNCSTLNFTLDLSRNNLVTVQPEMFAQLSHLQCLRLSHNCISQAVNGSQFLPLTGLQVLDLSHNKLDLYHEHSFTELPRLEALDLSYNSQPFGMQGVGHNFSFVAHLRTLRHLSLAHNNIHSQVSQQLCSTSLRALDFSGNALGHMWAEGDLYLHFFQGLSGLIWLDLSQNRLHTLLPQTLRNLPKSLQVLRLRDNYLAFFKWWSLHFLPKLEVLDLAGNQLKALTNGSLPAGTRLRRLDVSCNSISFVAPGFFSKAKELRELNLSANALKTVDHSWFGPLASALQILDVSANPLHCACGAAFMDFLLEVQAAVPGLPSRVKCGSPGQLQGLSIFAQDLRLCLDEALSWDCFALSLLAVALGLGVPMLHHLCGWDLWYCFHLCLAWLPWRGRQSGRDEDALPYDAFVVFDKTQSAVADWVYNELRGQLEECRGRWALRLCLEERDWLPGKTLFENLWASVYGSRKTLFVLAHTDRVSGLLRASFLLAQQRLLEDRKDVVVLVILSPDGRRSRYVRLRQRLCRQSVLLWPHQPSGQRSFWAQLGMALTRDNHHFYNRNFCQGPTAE
Outline: as §1

SMILES | IC50 [1] | IC50 [2] | IC50 [3]
COc1cc(-c2cc3[nH]nc(C4CCC(N5CC(OC)C5)CC4)c3cc2C(C)C)cn2ncnc12 (single isomer, unassigned) [Example 147, 6-(5-isopropyl-3-(4-(3-methoxyazetidin-1-yl)cyclohexyl)-1H-indazol-6-yl)-8-methoxy-[1,2,4]triazolo[1,5-a]pyridine] | 0.2 nM | 0.4 nM | 13100 nM
COc1cc(-c2cc3[nH]nc(C4CCC(N5CC(OC)C5)CC4)c3cc2C(C)C)cn2ncnc12 (single isomer, unassigned) [Example 148, 6-(5-isopropyl-3-(4-(3-methoxyazetidin-1-yl)cyclohexyl)-1H-indazol-6-yl)-8-methoxy-[1,2,4]triazolo[1,5-a]pyridine] | 31.3 nM | 1.3 nM | 6450 nM
CCOC1CN(C2CCC(c3n[nH]c4cc(-c5cc(C)c6ncnn6c5)c(C(C)C)cc34)CC2)C1 (single isomer, unassigned) [Example 149, 6-(3-(4-(3-ethoxyazetidin-1-yl)cyclohexyl)-5-isopropyl-1H-indazol-6-yl)-8-methyl-[1,2,4]triazolo[1,5-a]pyridine] | 0.4 nM | 0.8 nM | 7480 nM
CCOC1CN(C2CCC(c3n[nH]c4cc(-c5cc(C)c6ncnn6c5)c(C(C)C)cc34)CC2)C1 (single isomer, unassigned) [Example 150, 6-(3-(4-(3-ethoxyazetidin-1-yl)cyclohexyl)-5-isopropyl-1H-indazol-6-yl)-8-methyl-[1,2,4]triazolo[1,5-a]pyridine] | 0.1 nM | 1.7 nM | 6910 nM
Cc1cc(-c2cc3[nH]nc(C4CCC(N5CC(OC(C)C)C5)CC4)c3cc2C(C)C)cn2ncnc12 (single isomer, unassigned) [Example 161, 6-(3-(4-(3-isopropoxyazetidin-1-yl)cyclohexyl)-5-isopropyl-1H-indazol-6-yl)-8-methyl-[1,2,4]triazolo[1,5-a]pyridine] | 0.5 nM | 6.4 nM | 8400 nM
Cc1cc(-c2cc3[nH]nc(C4CCC(N5CC(OC(C)C)C5)CC4)c3cc2C(C)C)cn2ncnc12 (single isomer, unassigned) [Example 162, 6-(3-(4-(3-isopropoxyazetidin-1-yl)cyclohexyl)-5-isopropyl-1H-indazol-6-yl)-8-methyl-[1,2,4]triazolo[1,5-a]pyridine] | 0.7 nM | 1.5 nM | 8540 nM
Cc1cc(-c2cc3[nH]nc(C4CCC(N5CCC(C)(O)C5)CC4)c3cc2C(C)C)cn2ncnc12 (single isomer, unassigned) [Example 166, 1-(4-(5-isopropyl-6-(8-methyl-[1,2,4]triazolo[1,5-a]pyridin-6-yl)-1H-indazol-3-yl)cyclohexyl)-3-methylpyrrolidin-3-ol] | 0.2 nM | 4.2 nM | 8900 nM
CCc1cc(-c2cc(C)c3ncnn3c2)cc2[nH]nc(OC3CCC(N(C)C)CC3)c12 (single isomer, unassigned) [Example 168, 4-((4-ethyl-6-(8-methyl-[1,2,4]triazolo[1,5-a]pyridin-6-yl)-1H-indazol-3-yl)oxy)-N,N-dimethylcyclohexan-1-amine] | 1.6 nM | 1.9 nM | 2570 nM
CCc1cc(-c2cc(C)c3ncnn3c2)cc2[nH]nc(OC3CCC(N(C)C)CC3)c12 (single isomer, unassigned) [Example 169, 4-((4-ethyl-6-(8-methyl-[1,2,4]triazolo[1,5-a]pyridin-6-yl)-1H-indazol-3-yl)oxy)-N,N-dimethylcyclohexan-1-amine] | 0.5 nM | 1.2 nM | 1830 nM
Cc1cc(-c2cc(C)c3ncnn3c2)cc2[nH]nc(OC3CCC(N(C)C)CC3)c12 (single isomer, unassigned) [Example 179, N,N-dimethyl-4-((4-methyl-6-(8-methyl-[1,2,4]triazolo[1,5-a]pyridin-6-yl)-1H-indazol-3-yl)oxy)cyclohexan-1-amine] | 8.5 nM | 3.3 nM | 2080 nM
Cc1cc(-c2cc(C)c3ncnn3c2)cc2[nH]nc(OC3CCC(N(C)C)CC3)c12 (single isomer, unassigned) [Example 180, N,N-dimethyl-4-((4-methyl-6-(8-methyl-[1,2,4]triazolo[1,5-a]pyridin-6-yl)-1H-indazol-3-yl)oxy)cyclohexan-1-amine] | 2.3 nM | 2.6 nM | 3260 nM
Cc1cc2c(OC3CCC(N(C)C)CC3)n[nH]c2cc1-c1cc(C)c2ncnn2c1 (single isomer, unassigned) [Example 181, N,N-dimethyl-4-((5-methyl-6-(8-methyl-[1,2,4]triazolo[1,5-a]pyridin-6-yl)-1H-indazol-3-yl)oxy)cyclohexan-1-amine] | 19.9 nM | 71.7 nM | ≥ 50000 nM
